Measurements: paper PMC7613998, “Development of selective inhibitors of phosphatidylinositol 3-kinase C2α” (Nature Chemical Biology, 2022)
Values belong to the molecule of their own block, whether it stands above or below them.

How the values were obtained:
Test in all cases: biochemical
PAK4 = PAK4 (Homo sapiens, UniProt O96013); set-up: SelectScreen Z'-LYTE purified kinase panel, per cent inhibition, mean of two points; conditions: (μM)=Km app
CSNK1G2 (CK1 gamma 2) = CSNK1G2 (CK1 gamma 2) (Homo sapiens, UniProt P78368); set-up: SelectScreen Z'-LYTE purified kinase panel, per cent inhibition, mean of two points; conditions: (μM)=Km app
BTK = BTK (Homo sapiens, UniProt Q06187); set-up: SelectScreen Z'-LYTE purified kinase panel, per cent inhibition, mean of two points; conditions: (μM)=Km app
MET (cMet) = MET (cMet) (Homo sapiens, UniProt P08581); set-up: SelectScreen Z'-LYTE purified kinase panel, per cent inhibition, mean of two points; conditions: (μM)=Km app
ROCK2 = ROCK2 (Homo sapiens, UniProt O75116); set-up: SelectScreen Z'-LYTE purified kinase panel, per cent inhibition, mean of two points; conditions: (μM)=Km app
TYK2 = TYK2 (Homo sapiens, UniProt P29597); set-up: SelectScreen Z'-LYTE purified kinase panel, per cent inhibition, mean of two points; conditions: (μM)=Km app
MKNK1 (MNK1) = MKNK1 (MNK1) (Homo sapiens, UniProt Q9BUB5); set-up: SelectScreen Z'-LYTE purified kinase panel, per cent inhibition, mean of two points; conditions: (μM)=Km app
INSR = INSR (Homo sapiens, UniProt P06213); set-up: SelectScreen Z'-LYTE purified kinase panel, per cent inhibition, mean of two points; conditions: (μM)=Km app
CSK = CSK (Homo sapiens, UniProt P41240); set-up: SelectScreen Z'-LYTE purified kinase panel, per cent inhibition, mean of two points; conditions: (μM)=Km app
MAPKAPK5 (PRAK) = target: T1, MAPKAPK5 (PRAK) (Homo sapiens, UniProt Q8IW41); set-up: SelectScreen Z'-LYTE purified kinase panel, per cent inhibition, mean of two points; conditions: (μM)=Km app
T1 sequence (Q8IW41 1-473): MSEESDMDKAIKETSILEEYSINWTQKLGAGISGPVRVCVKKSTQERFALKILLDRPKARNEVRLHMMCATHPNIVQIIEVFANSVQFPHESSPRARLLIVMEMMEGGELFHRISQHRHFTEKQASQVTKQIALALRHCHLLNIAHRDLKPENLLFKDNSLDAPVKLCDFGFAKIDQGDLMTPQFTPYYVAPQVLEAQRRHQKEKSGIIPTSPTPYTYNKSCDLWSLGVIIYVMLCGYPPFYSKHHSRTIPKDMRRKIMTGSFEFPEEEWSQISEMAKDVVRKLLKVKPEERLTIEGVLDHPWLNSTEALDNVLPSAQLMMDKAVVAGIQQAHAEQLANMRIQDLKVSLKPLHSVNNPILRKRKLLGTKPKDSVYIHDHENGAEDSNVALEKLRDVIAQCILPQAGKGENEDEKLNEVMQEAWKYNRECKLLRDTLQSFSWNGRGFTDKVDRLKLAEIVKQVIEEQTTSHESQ

TEK (Tie2) = TEK (Tie2) (Homo sapiens, UniProt Q02763); set-up: SelectScreen Z'-LYTE purified kinase panel, per cent inhibition, mean of two points; conditions: (μM)=Km app
KIT = KIT (Homo sapiens, UniProt P10721); set-up: SelectScreen Z'-LYTE purified kinase panel, per cent inhibition, mean of two points; conditions: (μM)=Km app
MKNK2 (MNK2) = MKNK2 (MNK2) (Homo sapiens, UniProt Q9HBH9); set-up: SelectScreen LanthaScreen kinase binding assay, per cent tracer displacement, mean of two points; conditions: tracer displacement
KIT D816V = KIT D816V (Homo sapiens, UniProt P10721, D816V); set-up: SelectScreen LanthaScreen kinase binding assay, per cent tracer displacement, mean of two points; conditions: tracer displacement
Chain of KIT D816V (P10721 whole entry D816V): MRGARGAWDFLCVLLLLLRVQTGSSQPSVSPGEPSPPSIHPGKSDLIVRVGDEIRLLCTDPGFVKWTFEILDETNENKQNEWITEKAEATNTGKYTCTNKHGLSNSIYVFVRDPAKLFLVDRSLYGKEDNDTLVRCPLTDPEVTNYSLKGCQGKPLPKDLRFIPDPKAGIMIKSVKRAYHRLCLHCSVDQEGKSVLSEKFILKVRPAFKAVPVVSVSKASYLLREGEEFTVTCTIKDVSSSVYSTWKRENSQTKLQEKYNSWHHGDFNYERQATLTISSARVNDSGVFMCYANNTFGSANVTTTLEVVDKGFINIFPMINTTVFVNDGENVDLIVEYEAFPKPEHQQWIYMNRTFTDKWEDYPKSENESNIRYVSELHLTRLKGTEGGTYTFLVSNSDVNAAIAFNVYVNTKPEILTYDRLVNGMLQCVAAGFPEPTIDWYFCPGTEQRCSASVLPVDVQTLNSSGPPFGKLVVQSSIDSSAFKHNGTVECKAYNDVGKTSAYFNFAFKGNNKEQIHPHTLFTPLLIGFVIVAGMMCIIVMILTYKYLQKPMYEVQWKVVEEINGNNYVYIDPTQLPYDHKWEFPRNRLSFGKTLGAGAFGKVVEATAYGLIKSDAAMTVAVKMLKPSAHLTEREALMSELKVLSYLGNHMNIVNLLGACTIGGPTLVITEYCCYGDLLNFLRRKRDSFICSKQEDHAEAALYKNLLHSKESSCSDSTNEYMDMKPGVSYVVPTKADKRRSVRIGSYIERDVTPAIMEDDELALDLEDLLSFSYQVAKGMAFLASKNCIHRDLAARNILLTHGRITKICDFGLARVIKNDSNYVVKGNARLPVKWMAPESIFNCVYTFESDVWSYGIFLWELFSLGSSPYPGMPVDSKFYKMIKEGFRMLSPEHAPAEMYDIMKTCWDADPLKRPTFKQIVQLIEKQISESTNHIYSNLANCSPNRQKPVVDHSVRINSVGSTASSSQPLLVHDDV

Chain of TYK2 (P29597 whole entry): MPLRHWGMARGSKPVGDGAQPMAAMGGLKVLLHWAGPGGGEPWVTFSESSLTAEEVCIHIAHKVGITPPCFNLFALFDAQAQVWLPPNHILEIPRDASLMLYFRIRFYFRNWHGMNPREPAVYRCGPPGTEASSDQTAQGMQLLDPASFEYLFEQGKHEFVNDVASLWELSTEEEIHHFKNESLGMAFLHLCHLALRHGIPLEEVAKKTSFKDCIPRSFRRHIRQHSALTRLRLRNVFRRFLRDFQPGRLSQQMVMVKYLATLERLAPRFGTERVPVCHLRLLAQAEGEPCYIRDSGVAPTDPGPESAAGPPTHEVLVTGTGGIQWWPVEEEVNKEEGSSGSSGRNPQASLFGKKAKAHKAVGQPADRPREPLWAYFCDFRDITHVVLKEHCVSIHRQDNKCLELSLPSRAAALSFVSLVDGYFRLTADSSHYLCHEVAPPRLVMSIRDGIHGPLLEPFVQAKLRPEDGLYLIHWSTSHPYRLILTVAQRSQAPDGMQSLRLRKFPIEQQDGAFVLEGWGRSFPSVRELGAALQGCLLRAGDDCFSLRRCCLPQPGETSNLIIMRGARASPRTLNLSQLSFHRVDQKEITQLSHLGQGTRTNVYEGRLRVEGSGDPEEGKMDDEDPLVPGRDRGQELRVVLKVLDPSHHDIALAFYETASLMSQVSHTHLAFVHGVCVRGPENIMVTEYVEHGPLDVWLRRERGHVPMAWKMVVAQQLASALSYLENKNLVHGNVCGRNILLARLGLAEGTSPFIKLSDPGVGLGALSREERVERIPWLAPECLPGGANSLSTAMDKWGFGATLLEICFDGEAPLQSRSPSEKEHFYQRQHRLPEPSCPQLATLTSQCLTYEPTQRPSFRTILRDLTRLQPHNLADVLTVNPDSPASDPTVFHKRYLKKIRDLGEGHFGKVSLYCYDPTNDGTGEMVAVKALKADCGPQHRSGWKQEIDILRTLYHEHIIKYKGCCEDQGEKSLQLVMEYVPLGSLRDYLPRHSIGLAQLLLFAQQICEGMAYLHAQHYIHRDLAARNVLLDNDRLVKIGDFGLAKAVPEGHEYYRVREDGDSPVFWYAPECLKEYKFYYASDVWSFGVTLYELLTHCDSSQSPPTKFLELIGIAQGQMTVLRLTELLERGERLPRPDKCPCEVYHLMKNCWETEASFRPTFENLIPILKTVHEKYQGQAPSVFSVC
Chain of PAK4 (O96013 whole entry): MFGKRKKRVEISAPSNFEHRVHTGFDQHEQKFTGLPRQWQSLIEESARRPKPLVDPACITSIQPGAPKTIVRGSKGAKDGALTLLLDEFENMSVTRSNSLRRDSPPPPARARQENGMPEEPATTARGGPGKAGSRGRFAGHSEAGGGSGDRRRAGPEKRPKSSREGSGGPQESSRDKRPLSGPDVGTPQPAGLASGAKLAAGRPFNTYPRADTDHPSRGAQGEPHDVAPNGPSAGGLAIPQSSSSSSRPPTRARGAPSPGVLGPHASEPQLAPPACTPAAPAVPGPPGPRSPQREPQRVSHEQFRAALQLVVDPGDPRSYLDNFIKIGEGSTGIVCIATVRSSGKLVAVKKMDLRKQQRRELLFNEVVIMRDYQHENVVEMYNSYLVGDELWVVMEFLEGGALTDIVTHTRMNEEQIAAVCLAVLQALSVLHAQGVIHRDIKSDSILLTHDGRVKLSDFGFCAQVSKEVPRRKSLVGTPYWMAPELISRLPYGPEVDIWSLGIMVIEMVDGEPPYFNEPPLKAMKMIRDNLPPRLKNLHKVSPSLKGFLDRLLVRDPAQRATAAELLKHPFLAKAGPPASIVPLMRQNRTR
Chain of MET (cMet) (P08581 whole entry): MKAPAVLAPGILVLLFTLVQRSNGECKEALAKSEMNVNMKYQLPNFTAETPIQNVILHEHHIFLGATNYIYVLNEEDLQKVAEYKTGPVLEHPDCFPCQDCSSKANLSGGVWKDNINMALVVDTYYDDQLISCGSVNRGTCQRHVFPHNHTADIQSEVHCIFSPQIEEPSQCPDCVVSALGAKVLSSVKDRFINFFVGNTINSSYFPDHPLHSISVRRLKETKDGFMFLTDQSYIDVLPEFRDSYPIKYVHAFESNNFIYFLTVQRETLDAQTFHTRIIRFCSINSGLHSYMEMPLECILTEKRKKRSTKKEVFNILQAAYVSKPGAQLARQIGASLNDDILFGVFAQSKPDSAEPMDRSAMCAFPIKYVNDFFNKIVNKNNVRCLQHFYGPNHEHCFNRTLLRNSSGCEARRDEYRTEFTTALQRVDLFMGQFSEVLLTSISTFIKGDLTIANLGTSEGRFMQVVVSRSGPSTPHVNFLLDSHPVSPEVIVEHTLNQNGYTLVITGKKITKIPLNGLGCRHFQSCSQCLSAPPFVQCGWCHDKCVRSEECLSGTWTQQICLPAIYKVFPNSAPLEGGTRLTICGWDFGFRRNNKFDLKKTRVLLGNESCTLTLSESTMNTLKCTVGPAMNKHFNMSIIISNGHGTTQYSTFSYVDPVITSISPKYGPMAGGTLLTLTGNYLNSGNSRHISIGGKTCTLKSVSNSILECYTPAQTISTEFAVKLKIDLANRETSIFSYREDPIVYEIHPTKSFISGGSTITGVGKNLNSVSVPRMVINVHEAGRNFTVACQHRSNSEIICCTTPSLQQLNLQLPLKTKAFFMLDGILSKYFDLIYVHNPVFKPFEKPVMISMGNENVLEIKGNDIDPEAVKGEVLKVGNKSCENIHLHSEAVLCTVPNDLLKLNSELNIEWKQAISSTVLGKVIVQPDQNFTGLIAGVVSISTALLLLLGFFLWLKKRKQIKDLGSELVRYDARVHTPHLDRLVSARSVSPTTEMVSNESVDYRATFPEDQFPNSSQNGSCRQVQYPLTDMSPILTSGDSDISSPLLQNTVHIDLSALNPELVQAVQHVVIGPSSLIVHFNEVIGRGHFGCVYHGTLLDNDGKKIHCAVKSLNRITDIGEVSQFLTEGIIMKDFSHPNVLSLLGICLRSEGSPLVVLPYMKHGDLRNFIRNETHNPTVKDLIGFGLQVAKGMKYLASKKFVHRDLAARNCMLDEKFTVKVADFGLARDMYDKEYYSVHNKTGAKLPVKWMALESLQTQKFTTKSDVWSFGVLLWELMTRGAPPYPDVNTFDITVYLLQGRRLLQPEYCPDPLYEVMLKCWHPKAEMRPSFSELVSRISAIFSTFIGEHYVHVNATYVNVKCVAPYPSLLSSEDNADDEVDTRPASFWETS
Chain of BTK (Q06187 whole entry): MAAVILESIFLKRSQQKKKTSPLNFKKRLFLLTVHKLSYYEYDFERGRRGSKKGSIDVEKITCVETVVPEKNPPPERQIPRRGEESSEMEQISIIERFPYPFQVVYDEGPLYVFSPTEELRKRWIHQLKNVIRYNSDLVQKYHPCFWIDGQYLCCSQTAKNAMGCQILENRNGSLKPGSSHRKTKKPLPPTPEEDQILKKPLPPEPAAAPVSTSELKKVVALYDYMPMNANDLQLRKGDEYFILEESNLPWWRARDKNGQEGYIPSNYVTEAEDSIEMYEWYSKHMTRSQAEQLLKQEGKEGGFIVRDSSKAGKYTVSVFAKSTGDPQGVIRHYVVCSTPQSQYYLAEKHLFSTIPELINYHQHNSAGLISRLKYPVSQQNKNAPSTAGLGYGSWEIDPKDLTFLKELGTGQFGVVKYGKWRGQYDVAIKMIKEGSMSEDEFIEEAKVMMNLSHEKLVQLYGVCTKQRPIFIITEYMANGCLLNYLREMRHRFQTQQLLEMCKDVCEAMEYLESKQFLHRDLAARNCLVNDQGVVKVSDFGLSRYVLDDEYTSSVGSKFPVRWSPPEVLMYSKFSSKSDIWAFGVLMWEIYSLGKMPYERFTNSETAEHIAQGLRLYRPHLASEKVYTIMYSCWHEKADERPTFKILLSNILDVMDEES
Chain of KIT (P10721 whole entry): as the sequence (P10721 whole entry D816V) above, with V816D counted along it

- inhibition at 1 µM (PAK4): 9.59%
- inhibition at 3 µM (PAK4): 9%
- inhibition at 10 µM (PAK4): 4.11%
- inhibition at 1 µM (CSNK1G2 (CK1 gamma 2)): 0.334%
- inhibition at 3 µM (CSNK1G2 (CK1 gamma 2)): 6.89%
- inhibition at 10 µM (CSNK1G2 (CK1 gamma 2)): 8.12%
- inhibition at 1 µM (BTK): 6.72%
- inhibition at 3 µM (BTK): 3.08%
- inhibition at 10 µM (BTK): 2.73%
- inhibition at 1 µM (MET (cMet)): 4.52%
- inhibition at 3 µM (MET (cMet)): -1.8%
- inhibition at 10 µM (MET (cMet)): 1.23%
- inhibition at 1 µM (ROCK2): 2.33%
- inhibition at 3 µM (ROCK2): 1.58%
- inhibition at 10 µM (ROCK2): 5.34%
- inhibition at 1 µM (TYK2): -4.9%
- inhibition at 3 µM (TYK2): -7.09%
- inhibition at 10 µM (TYK2): -1.29%
- inhibition at 1 µM (MKNK1 (MNK1)): -10.5%
- inhibition at 3 µM (MKNK1 (MNK1)): -9.2%
- inhibition at 10 µM (MKNK1 (MNK1)): -14.3%
- inhibition at 1 µM (INSR): 3.42%
- inhibition at 3 µM (INSR): 3.95%
- inhibition at 10 µM (INSR): 0.721%
- inhibition at 1 µM (CSK): 3.79%
- inhibition at 3 µM (CSK): 4.7%
- inhibition at 10 µM (CSK): 4.31%
- inhibition at 1 µM (MAPKAPK5 (PRAK)): -1.38%
- inhibition at 3 µM (MAPKAPK5 (PRAK)): 1.26%
- inhibition at 10 µM (MAPKAPK5 (PRAK)): 0.194%
- inhibition at 1 µM (TEK (Tie2)): 7.5%
- inhibition at 3 µM (TEK (Tie2)): 5.07%
- inhibition at 10 µM (TEK (Tie2)): 3.39%
- inhibition at 1 µM (KIT): -11.3%
- inhibition at 3 µM (KIT): 5.95%
- inhibition at 10 µM (KIT): -5.32%
- inhibition at 1 µM (MKNK2 (MNK2)): -2.8%
- inhibition at 3 µM (MKNK2 (MNK2)): -3.55%
- inhibition at 10 µM (MKNK2 (MNK2)): -10.1%
- inhibition at 1 µM (KIT D816V): -3.29%
- inhibition at 3 µM (KIT D816V): 2.7%
- inhibition at 10 µM (KIT D816V): -1.13%
Compound: O=C(CSc1nc2nccnc2c(=O)n1CCc1ccccc1)Nc1nccs1 [compound 1, PITCOIN1]

- inhibition at 1 µM (PAK4): 4.8%
- inhibition at 3 µM (PAK4): 3.9%
- inhibition at 10 µM (PAK4): 2.41%
- inhibition at 1 µM (CSNK1G2 (CK1 gamma 2)): 7.85%
- inhibition at 3 µM (CSNK1G2 (CK1 gamma 2)): 15.6%
- inhibition at 10 µM (CSNK1G2 (CK1 gamma 2)): 13.7%
- inhibition at 1 µM (BTK): 3.1%
- inhibition at 3 µM (BTK): 6.59%
- inhibition at 10 µM (BTK): 3.91%
- inhibition at 1 µM (MET (cMet)): 4.73%
- inhibition at 3 µM (MET (cMet)): 8.1%
- inhibition at 10 µM (MET (cMet)): -2.17%
- inhibition at 1 µM (ROCK2): 7.17%
- inhibition at 3 µM (ROCK2): -3.73%
- inhibition at 10 µM (ROCK2): 2.1%
- inhibition at 1 µM (TYK2): 3.78%
- inhibition at 3 µM (TYK2): -2.18%
- inhibition at 10 µM (TYK2): 4.5%
- inhibition at 1 µM (MKNK1 (MNK1)): -3.26%
- inhibition at 3 µM (MKNK1 (MNK1)): -7.92%
- inhibition at 10 µM (MKNK1 (MNK1)): 0.613%
- inhibition at 1 µM (INSR): 3.69%
- inhibition at 3 µM (INSR): 4.01%
- inhibition at 10 µM (INSR): 4.66%
- inhibition at 1 µM (CSK): 9.48%
- inhibition at 3 µM (CSK): 7.4%
- inhibition at 10 µM (CSK): 6.13%
- inhibition at 1 µM (MAPKAPK5 (PRAK)): -3.78%
- inhibition at 3 µM (MAPKAPK5 (PRAK)): 2.14%
- inhibition at 10 µM (MAPKAPK5 (PRAK)): -2.49%
- inhibition at 1 µM (TEK (Tie2)): 8.6%
- inhibition at 3 µM (TEK (Tie2)): 10.7%
- inhibition at 10 µM (TEK (Tie2)): 5.64%
- inhibition at 1 µM (KIT): -9.5%
- inhibition at 3 µM (KIT): 14.5%
- inhibition at 10 µM (KIT): -3.62%
- inhibition at 1 µM (MKNK2 (MNK2)): -4.48%
- inhibition at 3 µM (MKNK2 (MNK2)): 1.13%
- inhibition at 10 µM (MKNK2 (MNK2)): -10.9%
- inhibition at 1 µM (KIT D816V): 6.33%
- inhibition at 3 µM (KIT D816V): 6.29%
- inhibition at 10 µM (KIT D816V): 5.56%
Compound: CS(=O)(=O)Nc1cccc(-c2csc(NC(=O)CSc3nc4nccnc4c(=O)n3CCc3ccccc3)n2)c1 [compound 3, PITCOIN3]
